Assays:
Assay in all cases: Cell proliferation assay (CellTiter-Glo, 72 hours)
BaF3 EML4-ALK = target: T1, BaF3 EML4-ALK (Homo sapiens, UniProt Q9UM73); format: cell-based; conditions: anti-cell proliferation
T1 construct: The EML4-ALK gene (variant 1) was synthesized at GenScript and cloned into pCDH-CMV-MCS-EF1-Puro plasmid (System Biosciences, Inc); fused on or other part: Q9HC35 (Echinoderm microtubule-associated protein-like 4)
Description: The EML4-ALK gene (variant 1) was synthesized at GenScript and cloned into pCDH-CMV-MCS-EF1-Puro plasmid (System Biosciences, Inc). Ba/F3-EML4-ALK wild type were generated by transducing Ba/F3 cells with lentivirus containing EML4-ALK wide type. Stable cell lines were selected by puromycin treatment, followed by IL-3 withdrawal. Briefly, 5×10^6 Ba/F3 cells were transduced with lentivirus supernatant in the presence of 8 μg/mL protamine sulfate. The transduced cells were subsequently selected with 1 μg/mL puromycin in the presence of IL3-containing medium RPMI1640, plus 10% FBS. After 10-12 days of selection, the surviving cells were further selected for IL3 independent growth.
(§1) Two thousand cells per well were seeded in 384 well white plate for 24 hrs, and then treated with compounds for 72 hours (37° C., 5% CO2). Cell proliferation was measured using CellTiter-Glo luciferase-based ATP detection assay (Promega) following the manufactures's protocol. IC50 determinations were performed using GraphPad Prism software (GraphPad, Inc., San Diego, Calif.).

KG-1 = format: cell-based, human
Description: (§2) Human medulla thyroid carcinoma cell line TT (containing RET […] mutation) and acute myelogenous cell line KG-1 were purchased from ATCC. Human colon cancer cell line KMI2 (containing TPM3-TRKA) was obtained from NCI.
as §1

KM12 cell (TPM3-TRKA) = format: cell-based, human
Description: as §2, §1

BaF3 KIF5B-RET = target: T2, BaF3 KIF5B-RET (Homo sapiens, UniProt P07949); format: cell-based; conditions: anti-cell proliferation, read-out: BaF3 KIF5B-RET IC50
T2 construct: fused on or other part: P33176 (Kinesin-1 heavy chain)
Text: (§3) The KIF5B-RET gene was synthesized at GenScript and cloned into pCDH-CMV-MCS-EF1-Puro plasmid (System Biosciences, Inc). KIF5B-RET point mutation V804M was generated at GenScript by PCR and confirmed by sequencing. Ba/F3-KIF5B-RET wild type and mutant were generated by transducing Ba/F3 cells with lentivirus containing KIF5B-RET wide type or mutant. Stable cell lines were selected by puromycin treatment, followed by IL-3 withdrawal. Briefly, 5×10^6 Ba/F3 cells were transduced with lentivirus supernatant in the presence of 8 μg/mL protamine sulfate. The transduced cells were subsequently selected with 1 µg/mL puromycin in the presence of IL3-containing medium RPMI1640, plus 10% FBS. After 10-12 days of selection, the surviving cells were further selected for IL3 independent growth.
as §1

BaF3 KIF5B-RET_G810R = target: T3, BaF3 KIF5B-RET_G810R (Homo sapiens, UniProt P07949, G810R, cells depend on it); format: cell-based; conditions: anti-cell proliferation, read-out: BaF3 KIF5B-RET_G810R IC50
T3 construct: fused on or other part: P33176 (Kinesin-1 heavy chain)
Text: [The source words this procedure for another variant and reports this variant under the same test.] as §3, §1

BaF3 KIF5B-RET_V804M = target: T4, BaF3 KIF5B-RET_V804M (Homo sapiens, UniProt P07949, V804M, cells depend on it); format: cell-based; conditions: anti-cell proliferation, read-out: BaF3 KIF5B-RET_V804M IC50
T4 construct: fused on or other part: P33176 (Kinesin-1 heavy chain)
Text: as §3, §1

[1] = Homo sapiens, KG-1, anti-cell proliferation
[2] = Homo sapiens, KM12, anti-cell proliferation

T3 sequence (P07949 whole entry G810R, the tested form may be a part): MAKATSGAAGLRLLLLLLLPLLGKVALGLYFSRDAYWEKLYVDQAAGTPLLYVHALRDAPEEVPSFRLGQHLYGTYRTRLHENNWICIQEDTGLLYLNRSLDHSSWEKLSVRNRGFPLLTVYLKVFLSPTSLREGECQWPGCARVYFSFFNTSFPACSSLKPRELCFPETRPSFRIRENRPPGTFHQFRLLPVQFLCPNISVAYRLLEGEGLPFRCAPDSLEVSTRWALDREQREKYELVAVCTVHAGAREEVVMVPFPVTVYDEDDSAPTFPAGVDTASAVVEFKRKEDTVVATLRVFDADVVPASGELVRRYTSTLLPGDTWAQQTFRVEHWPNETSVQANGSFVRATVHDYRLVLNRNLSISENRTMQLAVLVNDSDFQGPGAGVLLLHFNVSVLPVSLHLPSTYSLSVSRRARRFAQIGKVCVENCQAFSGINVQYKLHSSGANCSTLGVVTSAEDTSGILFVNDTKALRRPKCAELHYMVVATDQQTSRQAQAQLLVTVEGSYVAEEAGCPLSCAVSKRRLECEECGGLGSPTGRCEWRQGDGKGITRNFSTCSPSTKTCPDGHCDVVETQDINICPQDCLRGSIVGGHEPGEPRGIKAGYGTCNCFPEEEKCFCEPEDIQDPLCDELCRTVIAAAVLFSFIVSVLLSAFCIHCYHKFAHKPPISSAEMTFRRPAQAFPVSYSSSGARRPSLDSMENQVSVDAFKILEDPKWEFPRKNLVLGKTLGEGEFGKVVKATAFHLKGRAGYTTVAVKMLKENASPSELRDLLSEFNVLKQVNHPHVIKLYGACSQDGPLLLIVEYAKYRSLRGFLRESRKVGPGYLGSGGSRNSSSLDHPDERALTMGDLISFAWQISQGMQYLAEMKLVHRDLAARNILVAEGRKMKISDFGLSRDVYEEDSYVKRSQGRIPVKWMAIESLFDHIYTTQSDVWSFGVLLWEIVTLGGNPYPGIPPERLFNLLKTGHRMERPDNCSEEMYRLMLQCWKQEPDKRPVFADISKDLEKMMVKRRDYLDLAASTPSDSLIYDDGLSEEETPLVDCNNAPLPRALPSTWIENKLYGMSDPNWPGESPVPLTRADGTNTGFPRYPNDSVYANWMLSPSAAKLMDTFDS
T1 sequence (Q9UM73 whole entry, change not shown, the tested form may be a part): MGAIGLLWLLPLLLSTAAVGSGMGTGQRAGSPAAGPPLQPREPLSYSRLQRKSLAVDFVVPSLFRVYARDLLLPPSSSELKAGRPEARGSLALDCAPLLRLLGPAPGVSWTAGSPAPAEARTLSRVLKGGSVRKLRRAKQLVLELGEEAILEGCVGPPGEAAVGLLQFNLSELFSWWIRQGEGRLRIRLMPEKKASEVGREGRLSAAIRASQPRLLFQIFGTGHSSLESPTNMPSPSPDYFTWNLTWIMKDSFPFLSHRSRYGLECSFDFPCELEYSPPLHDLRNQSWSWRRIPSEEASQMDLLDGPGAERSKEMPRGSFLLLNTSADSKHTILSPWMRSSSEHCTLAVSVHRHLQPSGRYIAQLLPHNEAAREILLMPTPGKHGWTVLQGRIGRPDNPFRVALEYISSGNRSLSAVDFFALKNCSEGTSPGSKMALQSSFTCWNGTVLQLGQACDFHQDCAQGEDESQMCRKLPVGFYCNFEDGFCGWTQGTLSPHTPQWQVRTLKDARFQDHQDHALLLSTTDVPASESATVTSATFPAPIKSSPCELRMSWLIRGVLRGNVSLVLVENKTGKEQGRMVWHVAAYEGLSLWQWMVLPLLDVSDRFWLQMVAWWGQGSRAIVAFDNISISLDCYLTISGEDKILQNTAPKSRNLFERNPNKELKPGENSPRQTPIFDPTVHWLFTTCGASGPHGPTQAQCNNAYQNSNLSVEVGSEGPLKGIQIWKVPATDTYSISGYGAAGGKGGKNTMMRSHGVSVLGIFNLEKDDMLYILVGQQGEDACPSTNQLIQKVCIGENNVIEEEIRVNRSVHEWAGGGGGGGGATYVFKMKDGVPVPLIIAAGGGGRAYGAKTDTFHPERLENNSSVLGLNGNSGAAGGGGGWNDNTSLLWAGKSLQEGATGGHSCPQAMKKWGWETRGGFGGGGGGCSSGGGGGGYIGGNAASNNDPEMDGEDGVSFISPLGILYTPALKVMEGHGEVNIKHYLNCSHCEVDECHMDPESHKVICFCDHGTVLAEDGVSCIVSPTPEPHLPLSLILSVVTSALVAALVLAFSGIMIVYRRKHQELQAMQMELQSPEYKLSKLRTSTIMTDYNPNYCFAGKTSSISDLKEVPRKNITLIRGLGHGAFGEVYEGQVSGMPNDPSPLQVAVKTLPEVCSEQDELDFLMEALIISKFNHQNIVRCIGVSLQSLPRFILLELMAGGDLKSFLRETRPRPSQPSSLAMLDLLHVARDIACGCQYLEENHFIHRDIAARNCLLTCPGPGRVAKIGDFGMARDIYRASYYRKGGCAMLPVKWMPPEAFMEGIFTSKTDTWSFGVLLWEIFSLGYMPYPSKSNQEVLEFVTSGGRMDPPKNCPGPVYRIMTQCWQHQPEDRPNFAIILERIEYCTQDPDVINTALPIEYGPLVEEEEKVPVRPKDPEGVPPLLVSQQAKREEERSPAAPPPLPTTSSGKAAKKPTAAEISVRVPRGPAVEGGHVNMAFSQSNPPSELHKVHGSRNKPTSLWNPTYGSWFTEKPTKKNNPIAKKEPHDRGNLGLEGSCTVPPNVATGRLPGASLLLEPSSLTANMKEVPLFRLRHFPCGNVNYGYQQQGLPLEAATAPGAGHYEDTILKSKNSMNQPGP
T2 sequence (P07949 whole entry, change not shown, the tested form may be a part): as the sequence (P07949 whole entry G810R, the tested form may be a part) above, with R810G counted along it
T4 sequence (P07949 whole entry V804M, the tested form may be a part): as the sequence (P07949 whole entry G810R, the tested form may be a part) above, with V804M, R810G counted along it

Compound | GI50 (BaF3 EML4-ALK) [nM] | IC50 (KG-1; [1]) [nM] | IC50 (KM12 cell (TPM3-TRKA); [2]) [nM] | GI50 (BaF3 KIF5B-RET) [nM] | GI50 (BaF3 KIF5B-RET_G810R) [nM] | GI50 (BaF3 KIF5B-RET_V804M) [nM] | IC50 (KG-1; anti-cell proliferation) [nM] | IC50 (KM12 cell (TPM3-TRKA); anti-cell proliferation) [nM]
C[C@@H]1COc2ncc(F)cc2CN2c3nc4c(cnn4cc3O[C@H]3CCCC[C@H]32)C(=O)N1 [Compound 13, (4aR,13S,21aS)-8-fluoro-13-methyl-1,2,3,4,4a,13,14,21a-octahydro-6H-18, 20-(metheno)pyrazolo[4′,3′:6,7]pyrido [3′,2′:12,13][1,4,8, 10]oxatriazacyclotridecino[9,10-c][1,4]benzoxazin-15(12H)-one] | 5000 | 452 | 28.4 | 342 | 1120 | > 10000 | – | –
O=C1NC2(CCC2)CCOc2ncc(F)cc2CN2c3nc4c1cnn4cc3O[C@H]1CCC[C@H]12 [Compound 45] | 3110 | 1130 | 202 | 526 | 1710 | 5000 | – | –
O=C1NC2(CCC2)COc2ncc(F)cc2CN2c3nc4c1cnn4cc3O[C@H]1CCC[C@H]12 [Compound 22, (3a′R,20a′S)-7′-fluoro-1′H,2′H,3′H,3a′H, 5′H,11′H,13′H,14′H,20a′H-spiro[cyclobutane-1,12′-[10,20]dioxa[4,9,13,16,17,18][hexaaza [17,19](metheno)cyclopenta[5,6][1,4]oxazino[3,4-i]pyrazolo[4,3-f]pyrido [3,2-l][1,4,8,10]oxatriazacyclotridecin]-14′-one] | 157 | 156 | 49.3 | < 0.2 | 128 | 1760 | – | –
O=C1NCCCOc2ncc(F)cc2CN2c3nc4c1cnn4cc3O[C@H]1CCC[C@H]12 [Compound 19, (3aR,21aS)-7-fluoro-2,3,3a,11,12,13,14,21a-octahydro-1H,5H,15H-18,20-(metheno)cyclopenta[5,6][1,4]oxazino[4,3-e]pyrazolo[3,4-h]pyrido[2,3-b][1,5,7,11]oxatriazacyclotetradecin-15-one] | 895 | 73.1 | 7.8 | 5.2 | 78 | 3070 | – | –
O=C1N[C@H](C(F)F)COc2ncc(F)cc2CN2c3nc4c1cnn4cc3O[C@H]1CCC[C@H]12 [Compound 47, (3aR,12S,20aS)-12-(difluoromethyl)-7-fluoro-2,3,3a,12,13,20a-hexahydro-1H,5H-17,19-(metheno)cyclopenta[5,6][1,4] oxazino[3,4-i]pyrazolo[4,3-f]pyrido[3,2-l][1,4,8,10]oxatriazacyclotridecin-14(11H)-one] | 139 | 3.5 | < 0.2 | < 0.2 | 3.6 | 469 | – | –
O=C1NC2(CCCC2)COc2ncc(F)cc2CN2c3nc4c1cnn4cc3O[C@H]1CCC[C@H]12 [Compound 26, (3a′R,20a′S)-7′-fluoro-1′H,2′H, 3′H,3a′H,5′H,11′H,13′H,14′H,20a′H-spiro[cyclopentane-1,12′-[10,20]dioxa[4,9,13,16,17,18][hexaaza [17,19](metheno)cyclopenta[5,6][1,4]oxazino[3,4-i]pyrazolo[4,3-f]pyrido [3,2-l][1,4,8,10]oxatriazacyclotridecin]-14′-one] | 1410 | 737 | 210 | 160 | 323 | 5000 | – | –
O=C1NC[C@H](O)COc2ncc(F)cc2CN2c3nc4c1cnn4cc3O[C@H]1CCC[C@H]12 [Compound 32, (3aR,12S,21aS)-7-fluoro-12-hydroxy-2,3,3a,11,12,13,14,21a-octahydro-1H,5H,15H-18,20-(metheno)cyclopenta[5,6][1,4]oxazino[4,3-e]pyrazolo[3,4-h]pyrido[2,3-b][1,5,7,11]oxatriazacyclotetradecin-15-one] | 1060 | 223 | 20.2 | 89 | 501 | 5720 | – | –
(3aR,11s,13S,21aS)-7-fluoro-2,3,3a,12, 13,14,15,21a-octahydro-1H,5H,11H- 11,13-methano-18,20- (metheno)cyclopenta[5,6][1,4] oxazino[4,3-e]pyrazolo[3,4-h]pyrido[2,3- b][1,5,7,11]oxatriazacyclotetradecine [Compound 46] | 55.5 | – | – | < 0.2 | 2.9 | 71.5 | 5.9 | 2.8
O=C1NC2(CC2)COc2ncc(F)cc2CN2c3nc4c1cnn4cc3O[C@H]1CCC[C@H]12 [Compound 18, (3a′R,20a′S)-7′-fluoro-1′H,2′H,3′H,3a′H, 5′H,11′H,13′H,14′H,20a′H-spiro[cyclopropane-1,12′-[10,20]dioxa[4,9,13,16,17,18][hexaaza [17,19](metheno)cyclopenta[5,6][1,4]oxazino[3,4-i]pyrazolo[4,3-f]pyrido [3,2-l][1,4,8,10]oxatriazacyclotridecin]-14′-one] | 77.2 | 16.9 | 11.3 | 7.1 | 24.4 | 1530 | – | –
C[C@@H]1COc2c(F)cc(F)cc2CN2c3nc4c(cnn4cc3O[C@H]3CCC[C@H]32)C(=O)N1 [Compound 7, (3aR,12R,20aS)-7,9-difluoro-12-methyl-2,3,3a,12,13,20a-hexahydro-1H,5H-17-19-(metheno)cyclopenta[5,6][1,4] oxazino[3,4-i]pyrazolo[4,3-f][1,4,8,10]benzoxatriazacyclotridecin-14(11H)-one] | 675 | 344 | 37 | 0.2 | 99.2 | 1840 | – | –
C[C@H]1CNC(=O)c2cnn3cc4c(nc23)N(Cc2cc(F)cnc2OC1)[C@@H]1CCC[C@@H]1O4 [Compound 17, (3aR,12S,21aS)-7-fluoro-12-methyl-2,3,3a,11,12,13,14,21a-octahydro-1H,5H, 15H-18,20-(metheno)cyclopenta[5,6] [1,4]oxazino[4,3-e]pyrazolo[3,4-h]pyrido [2,3-b][1,5,7,11]oxatriazacyclotetradecin-15-one] | 616 | 5 | 4 | 1.8 | 10.7 | 2730 | – | –
O=C1NC[C@@H](CO)Oc2ncc(F)cc2CN2c3nc4c1cnn4cc3O[C@H]1CCC[C@H]12 [Compound 49, (3aR,11S,20aS)-7-fluoro-11-(hydroxymethyl)-2,3,3a,12,13,20a-hexahydro-1H,5H-17,19-(metheno)cyclopenta[5,6][1,4]oxazino[3,4-i]pyrazolo[4,3-f]pyrido[3,2-l][1,4,8,10]oxatriazacyclotridecin-14(11H)-one] | > 10000 | 5240 | 1460 | 397 | 1640 | 5000 | – | –
C[C@@H]1CCOc2ncc(F)cc2CN2c3nc4c(cnn4cc3O[C@H]3CCC[C@H]32)C(=O)N1 [Compound 16, (3aR,13R,21aS)-7-fluoro-13-methyl-2,3,3a,11,12,13,14,21a-octahydro-1H,5H, 15H-18,20-(metheno)cyclopenta[5,6] [1,4]oxazino[4,3-e]pyrazolo[3,4-h]pyrido [2,3-b][1,5,7,11]oxatriazacyclotetradecin-15-one] | 340 | 47.4 | 45.5 | 16.6 | 41.2 | 5000 | – | –
C[C@H]1CCNC(=O)c2cnn3cc4c(nc23)N(Cc2cc(F)cnc2O1)[C@@H]1CCC[C@@H]1O4 [Compound 15, (3aR,11S,21aS)-7-fluoro-11-methyl-2,3,3a,12,13,14,21a-octahydro-1H,5H, 15H-18,20-(metheno)cyclopenta[5,6] [1,4]oxazino[4,3-e]pyrazolo[3,4-h]pyrido [2,3-b][1,5,7,11]oxatriazacyclotetradecin-15-one] | 364 | 5.2 | 5.1 | 1.1 | 8.7 | 1240 | – | –

— patent US10745416B2, “Macrocyclic compounds for treating disease” (Turning Point Therapeutics, Inc., priority 2017, dated 2020)
